How the values were obtained:
[1] = molecular target: antibodies specific for the respective peptide antigens; details: antibody against the listed peptide; value taken from the reference; read-out: Affinity KD; cited from earlier work
[2] = tested on: alkaline protease from Bacillus sp. PS719; details: cited from earlier work
[3] = tested on: antibody C1 (specific for CRP-derived PET YEVQGEVF); test: Peptide competition assay, antibody C1; format: binding; details: competitor peptide against immobilized PET, neighbors completely ineffective even at the stated concentration, read-out: half-maximum effective peptide concentration
Description: (§1) In certain embodiments of the invention, a peptide competition assay may be used to determine the binding specificity of a capture agent towards its target PET, as compared to several nearest neighbor sequences of the PET. The same protocol can be adapted for small molecule-based competition assay
(§2) For a typical peptide competition assay, the following illustrative protocol may be used: 1 μg/100 μl/well of each target peptide is coated in Maxisorb Plates with coating buffer (carbonate buffer, pH 9.6) overnight at 4° C., or 1 hour at room temperature. The plates are washed with 300 μl of PBST (1×PBS/0.05% Tween 20) for 4 times. Then 300 μl of blocking buffer (2% BSA/PBST) is added and the plates are incubated for 1 hour at room temperature. Following blocking, the plates are washed with 300 μl of PBST for 4 times.
Synthesized competition peptides are dissolved in water to a final concentration of 2 mM solution. Serial dilution of competition peptides (for example, from 100 pM to 100 μM) in digested human serum are prepared. These competition peptides at particular concentrations are then mixed with equal amounts of primary antibodies against the target peptide. These mixtures are then added to plate wells with immobilized target peptides respectively. Binding is allowed to proceed for 2 hours at room temperature. […] Add 100 μl of stop buffer (2N HCL) and read the plates at OD450. […]

[4] = tested on: antibody P1 (specific for PSA-derived PET EPAELTDA); test: Peptide competition assay, antibody P1; format: binding; details: for fold higher concentration at which nearest neighbor is still ineffective: relative to antigen PET EPAELTDA
Description: as §1, §2
Synthesized competition peptides are dissolved in water to a final concentration of 2 mM solution. Serial dilution of competition peptides (for example, from 100 pM to 100 μM) in digested human serum are prepared. These competition peptides at particular concentrations are then mixed with equal amounts of primary antibodies against the target peptide. These mixtures are then added to plate wells with immobilized target peptides respectively. Binding is allowed to proceed for 2 hours at room temperature. The plates are washed with 300 μl of PBST for 4 times. Then labeled secondary antibody against the primary antibody, such as 100 μl of 5,000× diluted anti-rabbit-IgG-HRP, is added and incubated for 1 more hour at room temperature. The plates are washed with 300 μl of PBST for 6 times. For detection of the HRP label activity, add 100 μl of TMB substrate (for HRP) and incubate for 15 minutes at room temperature. Add 100 μl of stop buffer (2N HCL) and read the plates at OD450. A peptide competition curve is plotted using the ABS at OD450 versus the competitor peptide concentrations. […]

[5] = tested on: obese (NZO×NON)F1 male mice; details: chronic treatment; cited from earlier work
[6] = molecular target: antibody used in the PET-based peptide competition assay for the Survivin peptide …; test: Survivin Peptide Competitive Assay, ABS 450
[7] = molecular target: antibody C2, specific for the CRP PET sequence GYSIFSYA; test: peptide competition ELISA: soluble peptide series against the same immobilized peptide for a fixed concentration of antibody, in 10 mM digested serum proteins, HRP secondary antibody, ABS 450
[8] = molecular target: PET-specific antibody used in the peptide competition assay for the Troponin T peptide …; test: peptide competition ELISA with immobilized peptide, in 10mM digested serum proteins, ABS 450
[9] = molecular target: antibody C1, specific for the CRP-derived 8-mer PET sequence YEVQGEVF; test: peptide competition assay, soluble PET against immobilized PET for antibody C1
[10] = molecular target: antibody C1, specific for the CRP-derived 8-mer PET sequence YEVQGEVF; test: peptide competition ELISA: soluble peptide series against the same immobilized peptide for a fixed concentration of antibody, in 10 mM digested serum proteins, HRP secondary antibody, ABS 450
[11] = liberation of p-nitroaniline from the substrate

In the case of “HHHHH [HHHHH (HIS tag), 5-aa HIS tag peptide]”, the Kd [1] is listed as 25 nM.

In the case of `O=S(=O)(F)Cc1ccccc1` [PMSF, phenylmethylsulfonyl fluoride], the “inhibition of protease activity” value [2] is listed as “completely inhibited”.

In the case of `Cc1ccc(S(=O)(=O)N[C@@H](CCCCN)C(=O)CCl)cc1` [TLCK, N-α-p-tosyl-L-lysine chloromethyl ketone], the “inhibition of protease activity” value [2] is given as “completely inhibited”.

In the case of YEVQGEVF, the IC50 [3] is reported as ~1000 nM.

For `O=c1oc(Cl)c(Cl)c2ccccc12` [DCI, 3,4-dichloroisocoumarin], the “inhibition of protease activity” value [2] is given as “completely inhibited”.

In the case of “RYDIEAKVTK [10-aa peptide antigen of a literature antibody (JI 169:6992, 2002)]”, the Kd [1] is listed as 3.5 nM.

With EPAELTDA the IC50 ([4]; competitor peptide against immobilized PET, read-out: half-maximum effective peptide concentration) was ~40 nM.

For “NYRAYATEPHAKKKS [15-aa peptide antigen of a literature antibody (EJB 267:1819, 2000)]”, the Kd [1] is listed as 0.5 nM.

In the case of PQSDPSVEPPLS, the Kd [1] is listed as 16 nM.

In the case of “N-carbobenzoxy (CBZ)-L-arginine-p-nitroanilide”, the Km [2, 11] is given as 600 µM and the Vmax [2, 11] is given as 1.0 μmol min^−1 mg protein^−1.

For `CN(CCOc1ccc(CC2SC(=O)NC2=O)cc1)c1ccccn1` (stereo not drawn) [rosiglitazone], the “effect on hepatic steatosis” value [5] is given as “markedly exacerbated”.

For “MDYKAFDN (FLAG tag) [8-aa FLAG tag peptide]”, the Kd [1] is listed as 2.3 nM.

For “DPTQLTDA [nearest-neighbor 8-mer of EPAELTDA found in the human proteome]”, the “fold higher concentration at which nearest neighbor is still ineffective” value [4] was 25,000 fold.

For YDVPDYAS (HA tag), the Kd [1] is given as 2 nM.

For GATPEDLNQKLAGN, the Kd [1] is listed as 1.4 nM.

In the case of CRGTGSYNRSSFESSSG, the Kd [1] is listed as 2.8 nM.

In the case of “EPVELTSA [nearest-neighbor 8-mer of EPAELTDA found in the human proteome]”, the “fold higher concentration at which nearest neighbor is still ineffective” value [4] is reported as 25,000 fold.

For MGAPTLPPAWQPF [Survivin peptide …], the IC50 (read off the curve) [6] was 20 nM.

GYSIFSYA [CRP PET peptide GYSIFSYA] gave a Detection Limit [7] of 1 nM and an IC50 (read off the curve) [7] of 1000 nM.

SFMPNLVPPK [Troponin T tryptic PET-peptide …] gave an IC50 (read off the curve) [8] of 20 nM.

YEVQGEVF [CRP-derived 8-mer PET peptide YEVQGEVF] gave an IC50 [9] of 1000 nM and a Detection Limit [10] of 100 pM.
